Data: patent publication US9169260B2 (MERCK SHARP & DOHME CORP., priority 2011, dated 2015)
Like-named read-outs stand apart in the source and are kept apart here.

Molecular target: GST tagged IRAK-4 (Homo sapiens (Human), UniProt Q9NWZ3)
Assay: IRAK-4 Kinase Assay (IMAP fluorescence polarization)
Assay type: biochemical
Method in brief: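 Activity was read by IMAP fluorescence polarization, where phosphopeptide binding to M(III) nanoparticles raises FP. The 30-minute, 25° C reaction used 100 μM ATP, 100 nM RP7030 substrate and 0.5 nM GST-IRAK-4 in pH 7.2 Tris buffer with MgCl2, DTT and Tween 20.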

[1] = 100 μM ATP, 30 minutes at 25° C.
[2] = 100 μM ATP, 30 minutes at 25° C., μM

Sequence of GST tagged IRAK-4 (Q9NWZ3 whole entry): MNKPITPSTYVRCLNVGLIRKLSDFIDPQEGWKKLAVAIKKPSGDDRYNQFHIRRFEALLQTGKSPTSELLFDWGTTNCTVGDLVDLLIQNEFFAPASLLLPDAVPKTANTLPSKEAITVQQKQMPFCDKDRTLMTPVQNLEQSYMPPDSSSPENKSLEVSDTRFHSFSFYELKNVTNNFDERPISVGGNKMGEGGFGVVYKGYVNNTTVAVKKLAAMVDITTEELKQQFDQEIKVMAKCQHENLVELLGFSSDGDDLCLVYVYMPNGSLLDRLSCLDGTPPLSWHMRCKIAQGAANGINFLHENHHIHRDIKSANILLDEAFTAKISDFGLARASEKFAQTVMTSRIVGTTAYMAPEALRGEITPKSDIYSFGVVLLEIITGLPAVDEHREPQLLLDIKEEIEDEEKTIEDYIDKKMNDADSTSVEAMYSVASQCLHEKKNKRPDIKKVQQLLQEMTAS

Row | IC50 [1] [µM] | IC50 [2] [µM] | Compound | further results
1 | – | – | Cc1ccc(-n2nc(C3CCN(S(C)(=O)=O)CC3)cc2NC(=O)c2cnn3cccnc23)cn1 [Example 168, N-(1-(6-methylpyridin-3-yl)-3-(1-(methylsulfonyl)piperidin-4-yl)-1H-pyrazol-5-yl)pyrazolo[1,5-a]pyrimidine-3-carboxamide] | IC50: < 1 µM
2 | < 0.1 | – | Cc1ccc(-n2nc(C3CCN(C4CCC5(CCC(=O)N5)CC4)CC3)cc2NC(=O)c2cnn3cccnc23)cc1 (stereo not shown) [Example 255, N-{1-(4-methylphenyl)-3-[1-(2-oxo-1-azaspiro[4.5]dec-8-yl)piperidin-4-yl]-1H-pyrazol-5-yl}pyrazolo[1,5-a]pyrimidine-3-carboxamide] | –
3 | < 0.1 | – | CCN1CCC(N2CCC(c3cc(NC(=O)c4cnn5cccnc45)n(-c4ccc(C)cn4)n3)CC2)CC1 [Example 279, N-[3-(1′-ethyl-1,4′-bipiperidin-4-yl)-1-(5-methylpyridin-2-yl)-1H-pyrazol-5-yl]pyrazolo[1,5-a]pyrimidine-3-carboxamide] | –
4 | – | > 1 | Cc1ccc(-n2nc(C3CCN(S(=O)(=O)c4cccc(C(F)(F)F)c4)CC3)cc2NC(=O)c2cnn3cccnc23)cc1 [Example 371, N-[1-(4-methylphenyl)-3-(1-{[3-(trifluoromethyl)phenyl]sulfonyl}piperidin-4-yl)-1H-pyrazol-5-yl]pyrazolo[1,5-a]pyrimidine-3-carboxamide] | –
5 | – | < 1 | Cc1ccc(-n2nc(-c3c(F)cccc3OCc3ccccc3)cc2NC(=O)c2cnn3cccnc23)cc1 [Example 339, N-{3-[2-(benzyloxy)-6-fluorophenyl]-1-(4-methylphenyl)-1H-pyrazol-5-yl}pyrazolo[1,5-a]pyrimidine-3-carboxamide] | –
6 | < 0.1 | – | Cc1ccc(-n2nc(C3CCN(C4CCC(C)C4)CC3)cc2NC(=O)c2cnn3cccnc23)nc1 (stereo not shown) [Example 272, N-{3-[1-(3-methylcyclopentyl)piperidin-4-yl]-1-(5-methylpyridin-2-yl)-1H-pyrazol-5-yl}pyrazolo[1,5-a]pyrimidine-3-carboxamide] | –
7 | – | < 1 | Cc1ccc(-n2nc(C3CCN(C4CN(S(C)(=O)=O)C4)CC3)cc2NC(=O)c2cnn3cccnc23)cc1 [Example 244, N-[1-(4-methylphenyl)-3-{1-[1-(methylsulfonyl)azetidin-3-yl]piperidin-4-yl}-1H-pyrazol-5-yl]pyrazolo[1,5-a]pyrimidine-3-carboxamide] | –
8 | > 0.1 | – | Cc1ccc(-n2nc(C3CCN(Cc4ccccc4)CC3)cc2NC(=O)c2cnn3cccnc23)cc1 [Example 218, N-[3-(1-benzylpiperidin-4-yl)-1-(4-methylphenyl)-1H-pyrazol-5-yl]pyrazolo[1,5-a]pyrimidine-3-carboxamide] | –
9 | – | < 1 | Cc1ccc(-n2nc(C3CCN(C4CN(S(=O)(=O)C(C)C)C4)CC3)cc2NC(=O)c2cnn3cccnc23)cc1 [Example 246, N-[3-(1-{1-[(1-methylethyl)sulfonyl]azetidin-3-yl}piperidin-4-yl)-1-(4-methylphenyl)-1H-pyrazol-5-yl]pyrazolo[1,5-a]pyrimidine-3-carboxamide] | –
10 | – | > 1 | Cc1ccc(-n2nc(C3(C)CC3)cc2NC(=O)c2cnn3cccnc23)nc1 [Example 181, N-(3-(1-methylcyclopropyl)-1-(5-methylpyridin-2-yl)-1H-pyrazol-5-yl)pyrazolo[1,5-a]pyrimidine-3-carboxamide] | –
11 | < 0.1 | – | CCS(=O)(=O)c1ccc(-c2cc(NC(=O)c3cnn4cccnc34)n(-c3ccc(C)cc3)n2)cc1 [Example 352, N-{3-[4-(ethylsulfonyl)phenyl]-1-(4-methylphenyl)-1H-pyrazol-5-yl}pyrazolo[1,5-a]pyrimidine-3-carboxamide] | –
12 | – | > 1 | Cc1ccc(-n2nc(CN3CCCC3)cc2NC(=O)c2cnn3cccnc23)cc1 [Example 142, N-(3-(pyrrolidin-1-ylmethyl)-1-(p-tolyl)-1,4-pyrazol-5-yl)pyrazolo[1,5-a]pyrimidine-3-carboxamide] | –
13 | < 0.1 | – | CCCN1CCC(c2cc(NC(=O)c3cnn4cccnc34)n(-c3ccc(C)cc3)n2)CC1 [Example 220, N-[1-(4-methylphenyl)-3-(1-propylpiperidin-4-yl)-1H-pyrazol-5-yl]pyrazolo[1,5-a]pyrimidine-3-carboxamide] | –
14 | – | < 1 | Cc1ccc(-n2nc(C3CN(S(=O)(=O)C4CCCC4)C3)cc2NC(=O)c2cnn3cccnc23)cc1 [Example 85, N-(3-(1-(cyclopentylsulfonyl)azetidin-3-yl)-1-(p-tolyl)-1H-pyrazol-5-yl)pyrazolo[1,5-a]pyrimidine-3-carboxamide] | –
15 | < 0.1 | – | Cc1ccc(-n2nc(C3CCC(N)CC3)cc2NC(=O)c2cnn3cccnc23)nc1 (stereo not shown) [Example 185, N-(3-(4-aminocyclohexyl)-1-(5-methylpyridin-2-yl)-1H-pyrazol-5-yl)pyrazolo[1,5-a]pyrimidine-3-carboxamide] | –
16 | – | > 1 | Cc1ccc(-n2nc(-c3cncc(F)c3)cc2NC(=O)c2cnn3cccnc23)cc1 [Example 136, N-(3-(5-fluoropyridin-3-yl)-1-(p-tolyl)-1H-pyrazol-5-yl)pyrazolo[1,5-a]pyrimidine-3-carboxamide] | –

Row | IC50 [1] [µM] | IC50 [2] [µM] | Compound | further results
17 | < 0.1 | – | Cc1ccc(-n2nc(-c3ccc(C(=O)N(C)C)cc3)cc2NC(=O)c2cnn3cccnc23)cc1 [Example 349, N-{3-[4-(dimethylcarbamoyl)phenyl]-1-(4-methylphenyl)-1H-pyrazol-5-yl}pyrazolo[1,5-a]pyrimidine-3-carboxamide] | –
18 | – | < 1 | COc1ccc(-n2nc(C3CCNCC3)cc2NC(=O)c2cnn3cccnc23)cc1 [Example 8, N-(1-(4-methoxyphenyl)-3-(piperidin-4-yl)-1H-pyrazol-5-yl)pyrazolo[1,5-a]pyrimidine-3-carboxamide] | –
19 | < 0.1 | – | Cc1ccc(-n2nc(C3CCN(C(C)C)CC3)cc2NC(=O)c2cnn3cc(Br)cnc23)cc1 [Example 108, 6-bromo-N-(3-(1-isopropylpiperidin-4-yl)-1-(p-tolyl)-1H-pyrazol-5-yl)pyrazolo[1,5-a]pyrimidine-3-carboxamide] | –
20 | < 0.1 | – | Cc1ccc(-n2nc(C3CCN(C4CCCOC4)CC3)cc2NC(=O)c2cnn3cccnc23)nc1 (stereo not shown) [Example 264, N-{1-(5-methylpyridin-2-yl)-3-[1-(tetrahydro-2H-pyran-3-yl)piperidin-4-yl]-1H-pyrazol-5-yl}pyrazolo[1,5-a]pyrimidine-3-carboxamide] | –
21 | < 0.1 | – | Cc1ccc(-n2nc(C3=CCN(S(C)(=O)=O)CC3)cc2NC(=O)c2cnn3cccnc23)cc1 [Example 139, N-(3-(1-(methylsulfonyl)-1,2,3,6-tetrahydropyridin-4-yl)-1-(p-tolyl)-1H-pyrazol-5-yl)pyrazolo[1,5-a]pyrimidine-3-carboxamide] | –
22 | – | < 1 | Cc1ccc(-n2nc(CC3CCOCC3)cc2NC(=O)c2cnn3cccnc23)cc1 [Example 45, N-(3-((tetrahydro-2H-pyran-4-yl)methyl)-1-(p-tolyl)-1H-pyrazol-5-yl)pyrazolo[1,5-a]pyrimidine-3-carboxamide] | –
23 | – | < 1 | Cc1ccc(-n2nc(C3CCN(C4CN(C(=O)NC(C)(C)C)C4)CC3)cc2NC(=O)c2cnn3cccnc23)cc1 [Example 236, N-[3-{1-[1-(tert-butylcarbamoyl)azetidin-3-yl]piperidin-4-yl]-1-(4-methylphenyl)-1H-pyrazol-5-yl}pyrazolo[1,5-a]pyrimidine-3-carboxamide] | –
24 | – | < 1 | Cc1ccc(-n2nc(C3CCN(C(=O)C4CN(C)CCO4)CC3)cc2NC(=O)c2cnn3cc(Br)cnc23)cc1 (stereo not shown) [Example 117, 6-bromo-N-(3-(1-(4-methylmorpholine-2-carbonyl)piperidin-4-yl)-1-(p-tolyl)-1H-pyrazol-5-yl)pyrazolo[1,5-a]pyrimidine-3-carboxamide] | –
25 | < 0.1 | – | Cc1ccc(-n2nc(C3CN(Cc4cn[nH]c4)C3)cc2NC(=O)c2cnn3cccnc23)cc1 [Example 305, N-{1-(4-methylphenyl)-3-[1-(1H-pyrazol-4-ylmethyl)azetidin-3-yl]-1H-pyrazol-5-yl}pyrazolo[1,5-a]pyrimidine-3-carboxamide] | –
26 | – | < 1 | Cc1ccc(-n2nc(-c3ccc(S(C)(=O)=O)nc3)cc2NC(=O)c2cnn3cccnc23)cc1 [Example 351, N-{1-(4-methylphenyl)-3-[6-(methylsulfonyl)pyridin-3-yl]-1H-pyrazol-5-yl}pyrazolo[1,5-a]pyrimidine-3-carboxamide] | –
27 | < 0.1 | – | COc1ccc(-n2nc(C3CCN(C(C)C)CC3)cc2NC(=O)c2cnn3cccnc23)cc1 [Example 47, N-(3-(1-isopropylpiperidin-4-yl)-1-(4-methoxyphenyl)-1H-pyrazol-5-yl)pyrazolo[1,5-a]pyrimidine-3-carboxamide] | –
28 | < 0.1 | – | Cc1ccc(-n2nc(C3CCN(C4CCC(NS(C)(=O)=O)CC4)CC3)cc2NC(=O)c2cnn3cccnc23)nc1 (stereo not shown) [Example 263, N-[1-(5-methylpyridin-2-yl)-3-(1-{4-[(methylsulfonyl)amino]cyclohexyl]piperidin-4-yl)-1H-pyrazol-5-yl}pyrazolo[1,5-a]pyrimidine-3-carboxamide] | –
29 | – | < 1 | O=C(Nc1cc(C2CCN(S(=O)(=O)C3CC3)CC2)nn1-c1ccc(C2CC2)cn1)c1cnn2cccnc12 [Example 150, N-(1-(5-cyclopropylpyridin-2-yl)-3-(1-(cyclopropylsulfonyl)piperidin-4-yl)-1H-pyrazol-5-yl)pyrazolo[1,5-a]pyrimidine-3-carboxamide] | –
30 | < 0.1 | – | O=C(Nc1cc(C2CNC2)nn1-c1ccc(C2CC2)cc1F)c1cnn2cccnc12 [Example 87, N-(3-(azetidin-3-yl)-1-(4-cyclopropyl-2-fluorophenyl)-1H-pyrazol-5-yl)pyrazolo[1,5-a]pyrimidine-3-carboxamide] | –
31 | – | < 1 | Cc1ccc(-n2nc(C3CCN(C4CN(C(=O)OCCF)C4)CC3)cc2NC(=O)c2cnn3cccnc23)cc1 [Example 241, 2-fluoroethyl 3-(4-{1-(4-methylphenyl)-5-[(pyrazolo[1,5-a]pyrimidin-3-ylcarbonyl)amino]-1H-pyrazol-3-yl}piperidin-1-yl)azetidine-1-carboxylate] | –
